In patent US20180343865A1, “HERBICIDAL COMPOSITIONS COMPRISING ISOXAZOLO[5,4-B]PYRIDINES” (BASF SE, priority 2015, published 2018):

What was measured:
Type in all cases: in vivo
Kochia scoparia = test: Greenhouse postemergence herbicidal activity on KCHSC, 20 DAT
Method: (§1) For the post emergence treatment, the plants were first grown to the 2 leaf station (GS 12) and applied at GS 12-19 depending on the species. The herbicidal compositions were suspended or emulsified in water as distribution medium and sprayed using finely distributing nozzles.
(§2) The plants have been cultivated due to their individual requirements at 10 to 25° C. and. 20 to 35° C. The plants were irrigated due to their necessity.
(§3) The respective stated components A), were formulated as a 5% by weight strength emulsion concentrate containing wettol EM 31 20% and Cyclohexanone 80%. The respective stated components B), were formulated as either emulsifiable concentrates (EC), soluble liquids (SL), suspension concentrates (SC) or soluble granules (SG) as indicated in the table below. Component A, component B and the solvent system are introduced into the spray liquor used for applying the active compound. In the examples, the solvent used was water containing 1% Dash (Agnique ME 181 37.5%, Lutensit A-EP 22.5%, and Oleic Acid 5%) and 2% ammonium suflate.
(§4) In the following experiments, the herbicidal activity for the individual herbicide compounds (solo and mixture applications), the herbicidal succession was assessed 20 days after treatment (DAT). The evaluation for the damage on undesired weeds caused by the chemical compositions was carried out using a scale from 0 to 100%, compared to the untreated control plants. Here, 0 means no damage and 100 means complete destruction of the plants. The plants used in the greenhouse experiments belonged to the following species:
(§5) The value E, which corresponds to the effect (in %) that is to be expected if the activity of the individual compounds is additive, was calculated using the method of S. R. Colby (1967) “Calculating synergistic and antagonistic responses of herbicide combinations”, Weeds 15, p. 22 ff. Colby calculation for 2 way mixtures:
(§6) where: • X=effect in percent using herbicide A at an application rate a; • Y=effect in percent using herbicide B at an application rate b; • E=expected effect (in %) of A+B at application rates a+b
(§7) If the value observed in this manner is higher than the value E calculated according to Colby, a synergistic effect is present.

Amaranthus retroflexus = test: Greenhouse postemergence herbicidal activity on AMARE, 20 DAT; details: AMARE, postemergence
Method: as §1, §2, §3, §4, §5, §6, §7

Chenopodium album = test: Greenhouse postemergence herbicidal activity on CHEAL, 20 DAT
Method: as §1, §2, §3, §4, §5, §6, §7

Abutilon theoprasti = test: Greenhouse postemergence herbicidal activity on ABUTH, 20 DAT
Method: as §1, §2, §3, §4, §5, §6, §7

Amaranthus palmeri = test: Greenhouse postemergence herbicidal activity on AMAPA, 20 DAT; details: Amaranthus palmeri, post-emergence, 480 h
Method: as §1, §2, §3, §4, §5, §6, §7

Stellaria media = test: Greenhouse postemergence herbicidal activity on STEME, 20 DAT; details: Stellaria media, post-emergence, 480 h, STEME, postemergence, 20 DAT, read-out: % activity, solo bromoxynil
Method: as §1, §2, §3, §4, §5, §6, §7

Galium aparine = test: Greenhouse postemergence herbicidal activity on GALAP, 20 DAT
Method: as §1, §2, §3, §4, §5, §6, §7

Sinapis arvensis = test: Greenhouse postemergence herbicidal activity on SINAR, 20 DAT; details: Mutarda arvensis, post-emergence, 480 h, read-out: % activity, solo bromoxynil
Method: as §1, §2, §3, §4, §5, §6, §7

Ipomoea hederacea = test: Greenhouse postemergence herbicidal activity on IPOHE, 20 DAT
Method: as §1, §2, §3, §4, §5, §6, §7

Polygonum convolvulus = test: Greenhouse postemergence herbicidal activity on POLCO, 20 DAT; details: POLCO, postemergence
Method: as §1, §2, §3, §4, §5, §6, §7

COCC(C)N(C(=O)CCl)c1c(C)csc1C (stereo not shown) [DMTA, Dimethenamid]
% activity, solo DMTA (Kochia scoparia; 350 gai/ha, 20 DAT): 5%
inhibition at 175 g/ha (Kochia scoparia; Bassia scoparia, post-emergence, 480 h, 175 gai/ha, 20 DAT, read-out: % activity, solo DMTA): 0%
inhibition at 175 g/ha (Amaranthus retroflexus; Amaranthus retroflexus, post-emergence, 480 h, 175 gai/ha, 20 DAT, read-out: % activity, solo DMTA): 35%
inhibition at 350 g/ha (Amaranthus retroflexus; Amaranthus retroflexus, post-emergence, 480 h, 350 gai/ha, 20 DAT, read-out: % activity, solo DMTA): 45%
inhibition at 350 g/ha (Chenopodium album; Chenopodium album, post-emergence, 480 h, 350 gai/ha, 20 DAT, read-out: % activity, solo DMTA): 28%
inhibition at 175 g/ha (Abutilon theoprasti; Abutilon, post-emergence, 480 h, 175 gai/ha, 20 DAT, read-out: % activity, solo DMTA): 0%
inhibition at 350 g/ha (Abutilon theoprasti; Abutilon, post-emergence, 480 h, 350 gai/ha, 20 DAT, read-out: % activity, solo DMTA): 0%
inhibition at 175 g/ha (Amaranthus palmeri; 175 gai/ha, read-out: % activity, solo DMTA): 10%
inhibition at 350 g/ha (Amaranthus palmeri; 350 gai/ha, read-out: % activity, solo DMTA): 20%

N#Cc1cc(Br)c(O)c(Br)c1 [bromoxynil]
inhibition at 62.5 g/ha (Stellaria media; 62.5 gai/ha): 0%
inhibition at 125 g/ha (Stellaria media; 125 gai/ha): 0%
inhibition at 250 g/ha (Stellaria media; 250 gai/ha): 0%
inhibition at 62.5 g/ha (Kochia scoparia; Bassia scoparia, post-emergence, 480 h, 62.5 gai/ha, 20 DAT, read-out: % activity, solo bromoxynil): 50%
inhibition at 10.5 g/ha (Amaranthus retroflexus; Amaranthus retroflexus, post-emergence, 480 h, 10.5 gai/ha, 20 DAT, read-out: % activity, solo bromoxynil): 28%
inhibition at 125 g/ha (Amaranthus retroflexus; Amaranthus retroflexus, post-emergence, 480 h, 125 gai/ha, 20 DAT, read-out: % activity, solo bromoxynil): 80%
inhibition at 250 g/ha (Amaranthus retroflexus; Amaranthus retroflexus, post-emergence, 480 h, 250 gai/ha, 20 DAT, read-out: % activity, solo bromoxynil): 92%
inhibition at 62.5 g/ha (Galium aparine; Galium aparine, post-emergence, 480 h, 62.5 gai/ha, 20 DAT, read-out: % activity, solo bromoxynil): 89%
inhibition at 125 g/ha (Galium aparine; Galium aparine, post-emergence, 480 h, 125 gai/ha, 20 DAT, read-out: % activity, solo bromoxynil): 70%
inhibition at 10.5 g/ha (Chenopodium album; Chenopodium album, post-emergence, 480 h, 10.5 gai/ha, 20 DAT, read-out: % activity, solo bromoxynil): 53%
inhibition at 21 g/ha (Chenopodium album; Chenopodium album, post-emergence, 480 h, 21 gai/ha, 20 DAT, read-out: % activity, solo bromoxynil): 80%
inhibition at 62.5 g/ha (Chenopodium album; Chenopodium album, post-emergence, 480 h, 62.5 gai/ha, 20 DAT, read-out: % activity, solo bromoxynil): 45%
inhibition at 125 g/ha (Chenopodium album; Chenopodium album, post-emergence, 480 h, 125 gai/ha, 20 DAT, read-out: % activity, solo bromoxynil): 85%
inhibition at 250 g/ha (Chenopodium album; Chenopodium album, post-emergence, 480 h, 250 gai/ha, 20 DAT, read-out: % activity, solo bromoxynil): 95%
inhibition at 10.5 g/ha (Abutilon theoprasti; Abutilon, post-emergence, 480 h, 10.5 gai/ha, 20 DAT, read-out: % activity, solo bromoxynil): 68%
inhibition at 62.5 g/ha (Abutilon theoprasti; Abutilon, post-emergence, 480 h, 62.5 gai/ha, 20 DAT, read-out: % activity, solo bromoxynil): 73%
inhibition at 125 g/ha (Abutilon theoprasti; Abutilon, post-emergence, 480 h, 125 gai/ha, 20 DAT, read-out: % activity, solo bromoxynil): 90%
inhibition at 250 g/ha (Abutilon theoprasti; Abutilon, post-emergence, 480 h, 250 gai/ha, 20 DAT, read-out: % activity, solo bromoxynil): 90%
inhibition at 10.5 g/ha (Amaranthus palmeri; 10.5 gai/ha, read-out: % activity, solo bromoxynil): 58%
inhibition at 62.5 g/ha (Amaranthus palmeri; 62.5 gai/ha, read-out: % activity, solo bromoxynil): 83%
inhibition at 62.5 g/ha (Sinapis arvensis; 62.5 gai/ha): 70%
inhibition at 250 g/ha (Sinapis arvensis; 250 gai/ha): 95%
inhibition at 10.5 g/ha (Ipomoea hederacea; Ipomoea hederacea, post-emergence, 480 h, 10.5 gai/ha, 20 DAT, read-out: % activity, solo bromoxynil): 65%
inhibition at 21 g/ha (Ipomoea hederacea; Ipomoea hederacea, post-emergence, 480 h, 21 gai/ha, 20 DAT, read-out: % activity, solo bromoxynil): 65%
inhibition at 125 g/ha (Ipomoea hederacea; Ipomoea hederacea, post-emergence, 480 h, 125 gai/ha, 20 DAT, read-out: % activity, solo bromoxynil): 72%

Cc1c(C(=O)c2cnn(C)c2O)ccc(S(C)(=O)=O)c1C1=NOCC1 [topramezone]
% activity, solo application topramezone (Kochia scoparia; 6.25 gai/ha): 20%
% activity, solo application topramezone (Kochia scoparia; 12.5 gai/ha): 43%
% activity, solo application topramezone (Kochia scoparia; 25 gai/ha): 75%
% activity, solo application topramezone (Kochia scoparia; 50 gai/ha): 90%
% activity, solo application topramezone (Amaranthus retroflexus; 25 gai/ha): 98%
% activity, solo application topramezone (Galium aparine; 6.25 gai/ha): 70%
% activity, solo application topramezone (Galium aparine; 12.5 gai/ha): 75%
% activity, solo application topramezone (Galium aparine; 25 gai/ha): 70%
% activity, solo application topramezone (Galium aparine; 50 gai/ha): 85%
% activity, solo application topramezone (Polygonum convolvulus; 6.25 gai/ha): 25%
% activity, solo application topramezone (Polygonum convolvulus; 12.5 gai/ha): 25%
% activity, solo application topramezone (Polygonum convolvulus; 25 gai/ha): 68%
% activity, solo application topramezone (Chenopodium album; 6.25 gai/ha): 30%
% activity, solo application topramezone (Chenopodium album; 12.5 gai/ha): 55%
% activity, solo application topramezone (Chenopodium album; 25 gai/ha): 55%
% activity, solo application topramezone (Chenopodium album; 50 gai/ha): 73%
% activity, solo application topramezone (Abutilon theoprasti; 6.25 gai/ha): 93%
% activity, solo application topramezone (Ipomoea hederacea; 6.25 gai/ha): 23%
% activity, solo application topramezone (Ipomoea hederacea; 12.5 gai/ha): 55%
% activity, solo application topramezone (Ipomoea hederacea; 25 gai/ha): 75%
% activity, solo application topramezone (Ipomoea hederacea; 50 gai/ha): 88%
